According to patent US20100285145A1, “GPR 119 MODULATORS” (PFIZER INC, priority 2009, published 2010):
“And” between values parts separate entries of the source, which are not always exact repeats. Equal entries are not always repeated.

Columns and labels:
Type in all cases: cell-based
human GPR119 [1] = molecular target: T1, human GPR119 (Homo sapiens, UniProt Q8TDV5); test: β-Lactamase reporter functional assay (hGPR119 HEK293-CRE beta-lactamase cells); parameters: host or cells: HEK293-CRE beta-lactamase; Emax: dose or concentration left out as unconfirmed; settings: for EC50: hGPR119 HEK293-CRE beta-lactamase cells, 16 h incubation, each line a separate determination, read-out: Human B-lactamase Functional EC50; for Emax / Intrinsic Activity (Human B-lactamase): percent of maximal activity relative to standard GPR119 agonist at 10 micromolar; for Emax: read-out: Intrinsic Activity (Human B-lactamase)
T1 sequence (Q8TDV5 1-335): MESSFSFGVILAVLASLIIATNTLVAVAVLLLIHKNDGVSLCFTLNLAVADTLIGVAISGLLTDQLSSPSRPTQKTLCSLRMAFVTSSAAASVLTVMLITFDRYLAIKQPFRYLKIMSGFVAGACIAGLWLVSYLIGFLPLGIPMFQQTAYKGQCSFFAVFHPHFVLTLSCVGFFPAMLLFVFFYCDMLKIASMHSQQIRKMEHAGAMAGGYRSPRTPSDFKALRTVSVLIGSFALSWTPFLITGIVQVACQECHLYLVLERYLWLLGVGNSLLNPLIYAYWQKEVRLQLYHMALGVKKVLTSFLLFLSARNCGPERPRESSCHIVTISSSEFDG
Description: The assay for GPR119 agonists utilizes a cell-based (hGPR119 HEK293-CRE beta-lactamase) reporter construct where agonist activation of human GPR119 is coupled to beta-lactamase production via a cyclic AMP response element (CRE). GPR119 activity is then measured utilizing a FRET-enabled beta-lactamase substrate, CCF4-AM (Live Blazer FRET-B/G Loading kit, Invitrogen cat #K1027). Specifically, hGPR119-HEK-CRE-beta-lactamase cells (Invitrogen 2.5×10^7/mL) were removed from liquid nitrogen storage, and diluted in plating medium (Dulbecco's modified Eagle medium high glucose (DMEM; Gibco Cat # 11995-065), 10% heat inactivated fetal bovine serum (HIFBS; Sigma Cat # F4135), 1×MEM Nonessential amino acids (Gibco Cat # 15630-080), 25 mM HEPES pH 7.0 (Gibco Cat # 15630-080), 200 nM potassium clavulanate (Sigma Cat # P3494). The cell concentration was adjusted using cell plating medium and 50 microL of this cell suspension ([…]) was added into each well of a black, clear bottom, poly-d-lysine coated 384-well plate (Greiner Bio-One cat# 781946) and incubated at 37 degrees Celsius in a humidified environment containing 5% carbon dioxide. After 4 hours the plating medium was removed and replaced with 40 microL of assay medium (Assay medium is plating medium without potassium clavulanate and HIFBS). Varying concentrations of each compound to be tested was then added in a volume of 10 microL (final DMSO ≦0.5%) and the cells were incubated for 16 hours at 37 degrees Celsius in a humidified environment containing 5% carbon dioxide. Plates were removed from the incubator and allowed to equilibrate to room temperature for approximately 15 minutes. 10 microL of 6×CCF4/AM working dye solution (prepared according to instructions in the Live Blazer FRET-B/G Loading kit, Invitrogen cat #K1027) was added per well and incubated at room temperature for 2 hours in the dark. Fluorescence was measured on an EnVision fluorimetric plate reader, excitation 405 nm, emission 460 nm/535 nm. EC50 determinations were made from agonist-response curves analyzed with a curve fitting program using a 4-parameter logistic dose-response equation.

human GPR119 [2] = molecular target: T1, human GPR119; test: cAMP HTRF functional assay (hGPR119 HEK-CRE beta-lactamase cells); parameters: host or cells: HEK293-CRE beta-lactamase; settings: for EC50: HTRF cAMP, 30 min, 400 microM IBMX, each line a separate determination; for Emax / Intrinsic Activity (Human cAMP): percent of maximal activity relative to standard GPR119 agonist at 10 micromolar; for Emax: read-out: Intrinsic Activity (Human cAMP)
Description: GPR119 agonist activity was also determined with a cell-based assay utilizing an HTRF (Homogeneous Time-Resolved Fluorescence) cAMP detection kit (cAMP dynamic 2 Assay Kit; Cis Bio cat #62AM4PEC) that measures cAMP levels in the cell. The method is a competitive immunoassay between native cAMP produced by the cells and the cAMP labeled with the dye d2. The tracer binding is visualized by a Mab anti-cAMP labeled with Cryptate. The specific signal (i.e. energy transfer) is inversely proportional to the concentration of cAMP in either standard or sample.
Specifically, hGPR119 HEK-CRE beta-lactamase cells (Invitrogen 2.5×10^7/mL; the same cell line used in the beta-lactamase assay described above) are removed from cryopreservation and diluted in growth medium (Dulbecco's modified Eagle medium high glucose (DMEM; Gibco Cat # 11995-065), 1% charcoal dextran treated fetal bovine serum (CD serum; HyClone Cat # SH30068.03), 1×MEM Nonessential amino acids (Gibco Cat # 15630-080) and 25 mM HEPES pH 7.0 (Gibco Cat # 15630-080)). The cell concentration was adjusted to 1.5×10^5 cells/mL and 30 mLs of this suspension was added to a T-175 flask and incubated at 37 degrees Celsius in a humidified environment in 5% carbon dioxide. After 16 hours (overnight), the cells were removed from the T-175 flask (by rapping the side of the flask), centrifuged at 800×g and then re-suspended in assay medium (1×HBSS+CaCl2+MgCl2 (Gibco Cat # 14025-092) and 25 mM HEPES pH 7.0 (Gibco Cat # 15630-080)). The cell concentration was adjusted to 6.25×10^5 cells/mL with assay medium and 8 μl of this cell suspension (5000 cells) was added to each well of a white Greiner 384-well, low-volume assay plate (VWR cat #82051-458).
Varying concentrations of each compound to be tested were diluted in assay buffer containing 3-isobutyl-1-methylxanthin (IBMX; Sigma cat #15879) and added to the assay plate wells in a volume of 2 microL (final IBMX concentration was 400 microM and final DMSO concentration was 0.58%). Following 30 minutes incubation at room temperature, 5 microL of labeled d2 cAMP and 5 microL of anti-cAMP antibody (both diluted 1:20 in cell lysis buffer; as described in the manufacturers assay protocol) were added to each well of the assay plate. The plates were then incubated at room temperature and after 60 minutes, changes in the HTRF signal were read with an Envision 2104 multilabel plate reader using excitation of 330 nm and emissions of 615 and 665 nm. Raw data were converted to nM cAMP by interpolation from a cAMP standard curve (as described in the manufacturer's assay protocol) and EC50 determinations were made from an agonist-response curves analyzed with a curve fitting program using a 4-parameter logistic dose response equation.

human GPR119 [3] = molecular target: T1, human GPR119; test: β-Arrestin PathHunter assay (U2OS hGPR119 β-arrestin cells); settings: for EC50: U2OS hGPR119 β-arrestin cells, 90 min, each line a separate determination, read-out: Human B-arrestin Functional EC50; for Emax: U2OS, read-out: Intrinsic Activity (Human B-arrestin)
Description: GPR119 agonist activity was also determined with a cell-based assay utilizing DiscoverX PathHunter β-arrestin cell assay technology and their U2OS hGPR119 β-arrestin cell line (DiscoverX Cat # 93-0356C3). In this assay, agonist activation is determined by measuring agonist-induced interaction of β-arrestin with activated GPR119. A small, 42 amino acid enzyme fragment, called ProLink was appended to the C-terminus of GPR119. Arrestin was fused to the larger enzyme fragment, termed EA (Enzyme Acceptor). Activation of GPR119 stimulates binding of arrestin and forces the complementation of the two enzyme fragments, resulting in formation of a functional β-galactosidase enzyme capable of hydrolyzing substrate and generating a chemiluminescent signal.
Specifically, U2OS hGPR119 β-arrestin cells (DiscoverX 1×10^7/mL) are removed from cryopreservation and diluted in growth medium (Minimum essential medium (MEM; Gibco Cat # 11095-080), 10% heat inactivated fetal bovine serum (HIFBS; Sigma Cat # F4135-100), […] sodium pyruvate (Sigma Cat # S8636), 500 microg/mL G418 (Sigma Cat # G8168) and 250 microg/mL Hygromycin B (Invitrogen Cat # 10687-010). The cell concentration was adjusted to 1.66×10^5 cells/mL and 30 mLs of this suspension was added to a T-175 flask and incubated at 37 degrees Celsius in a humidified environment in 5% carbon dioxide. After 24 hours, the cells were removed from the T-175 flask with enzyme-free cell dissociation buffer (Gibco cat #13151-014), centrifuged at 800×g and then re-suspended in plating medium (Opti-MEM I (Invitrogen/BRL Cat # 31985-070) and 2% charcoal dextran treated fetal bovine serum (CD serum; HyClone Cat # SH30068.03).
The cell concentration was adjusted to 2.5×10^5 cells/mL with plating medium and 20 microliters of this cell suspension (5000 cells) was added to each well of a white Greiner 384-well low volume assay plate (VWR cat #82051-458) and the plates were incubated at 37 degrees Celsius in a humidified environment in 5% carbon dioxide.
After 16 hours (overnight) the assay plates were removed from the incubator and varying concentrations of each compound to be tested (diluted in assay buffer (1×HBSS+CaCl2+MgCl2 (Gibco Cat # 14025-092), 20 mM HEPES pH 7.0 (Gibco Cat # 15630-080) and 0.1% BSA (Sigma Cat # A9576)) were added to the assay plate wells in a volume of 5 microliters (final DMSO concentration was 0.5%). After a 90 minute incubation at 37 degrees Celsius in a humidified environment in 5% carbon dioxide, 12 microliters of Galacton Star β-galactosidase substrate (PathHunter Detection Kit (DiscoveRx Cat # 93-0001); prepared as described in the manufacturers assay protocol) was added to each well of the assay plate. The plates were incubated at room temperature and after 60 minutes, changes in the luminescence were read with an Envision 2104 multilabel plate reader at 0.1 seconds per well. EC50 determinations were made from an agonist-response curves analyzed with a curve fitting program using a 4-parameter logistic dose response equation.

[4] = percent of maximal activity relative to standard GPR119 agonist at 10 micromolar

Row | SMILES | EC50 (human GPR119 [1]) | Emax (human GPR119 [1]) [%] | EC50 (human GPR119 [2]) | Emax (human GPR119 [2]) [%] | EC50 (human GPR119 [3]) | Emax (human GPR119 [3]; [4]) [%] | Intrinsic Activity (Human B-arrestin) (human GPR119 [3]; [4]) | Intrinsic Activity (Human B-lactamase) (human GPR119 [1]) [%] | Intrinsic Activity (Human cAMP) (human GPR119 [2])
1 | CC(C)OC(=O)N1C[C@H]2COC[C@@H](C1)[C@@H]2Oc1cc(N2CCc3cc(S(C)(=O)=O)ccc32)ncn1 [Example 2, Isopropyl 9-syn-({6-[5-(methylsulfonyl)-2,3-dihydro-1H-indol-1-yl]pyrimidin-4-yl}oxy)-3-oxa-7-azabicyclo[3.3.1]nonane-7-carboxylate] | 343 nM and 51.3 nM and 38.2 nM | 98 |  |  |  |  |  | 106 | 
2 | CC(C)OC(=O)N1C[C@H]2COC[C@@H](C1)[C@@H]2Oc1ncnc(N2CCc3cc(S(C)(=O)=O)ccc32)c1C#N [Example 4] | 9.16 nM | 87.9 |  | 36.2 |  |  |  |  | 36% and 35.3%
3 | CC(C)OC(=O)N1CCC(Oc2cc(N3CCc4cc(S(C)(=O)=O)cnc43)ncn2)CC1 [Example 14, Isopropyl 4-({6-[5-(methylsulfonyl)-2,3-dihydro-1H-pyrrolo[2,3-b]pyridin-1-yl]pyrimidin-4-yl}oxy)piperidine-1-carboxylate] | 7270 nM | 98.1 | > 10000 nM |  |  |  |  |  | 
4 | CC(C)OC(=O)N1C[C@H]2COC[C@@H](C1)[C@H]2Oc1ncnc(N2CCc3cc(S(C)(=O)=O)ccc32)c1C#N [Example 5] | 11.5 nM and 12.5 nM | 98.1 | 357 nM and 602 nM and 1750 nM and 1330 nM and 1800 nM and 3140 nM |  |  |  |  | 100 | 

More lines, main results first:

Row | EC50 (human GPR119 [1]) | Emax (human GPR119 [1]) [%] | EC50 (human GPR119 [2]) | Emax (human GPR119 [2]) [%] | EC50 (human GPR119 [3]) | Emax (human GPR119 [3]; [4]) [%] | Intrinsic Activity (Human B-arrestin) (human GPR119 [3]; [4]) | Intrinsic Activity (Human B-lactamase) (human GPR119 [1]) [%] | SMILES | Intrinsic Activity (Human cAMP) (human GPR119 [2])
5 | 111 nM | 100 |  |  |  |  |  |  | Cc1c(O[C@H]2[C@@H]3COC[C@H]2CN(C(=O)OC(C)C)C3)ncnc1N1CCc2cc(S(C)(=O)=O)ccc21 [Example 24, Isopropyl (9-anti)-9-({5-methyl-6-[5-(methylsulfonyl)-2,3-d hydro-1H-indol-1-yl]pyrimidin-4-yl}oxy)-3-oxa-7-azabicyclo[3.3.1]nonane-7-carboxylate] | 
6 |  |  | 273 nM | 147 |  |  |  |  | CC1(OC(=O)N2CC[C@H](Oc3cc(N4CCc5nc(C(N)=O)ccc54)ncn3)[C@H](F)C2)CC1 (racemic) [Example 32, 1-Methylcyclopropyl (3R,4S)-4-{[6-(5-carbamoyl-2,3-dihydro-1H-pyrrolo[3,2-b]pyridin-1-yl)pyrimidin-4-yl]oxy}-3-fluoropiperidine-1-carboxylate] | 
7 |  |  | 18.8 nM and 18.4 nM and 15.9 nM and 12.7 nM and 14.6 nM |  | 2.57 nM and 19 nM and 4.94 nM and 20.6 nM | 75.8 | 73.7% and 81% and 78.9% |  | Cc1c(O[C@@H]2CCN(C(=O)OC3(C)CC3)C[C@@H]2F)ncnc1N1CCc2ncccc21 [Example 18, 1-Methylcyclopropyl (3S,4R)-4-{[6-(2,3-dihydro-1H-pyrrolo[3,2-b]pyridin-1-yl)-5-methylpyrimidin-4-yl]oxy}-3-fluoropiperidine-1-carboxylate] | 71.2% and 49.2% and 54.5% and 61.7% and 57.7%
8 |  |  | 19.4 nM | 57.9 | 6.31 nM | 74 |  |  | Cc1c(O[C@H]2CCN(C(=O)OC3(C)CC3)C[C@H]2F)ncnc1N1CCc2ncccc21 (racemic) [Example 19, 1-Methylcyclopropyl (3R,4S)-4-{[6-(2,3-dihydro-1H-pyrrolo[3,2-b]pyridin-1-yl)-5-methylpyrimidin-4-yl]oxy}-3-fluoropiperidine-1-carboxylate (racemic)] | 
9 |  |  | 1550 nM | 154 |  |  |  |  | CN(C)C(=O)c1ccc2c(n1)CCN2c1cc(OC2CCN(C(=O)OC3(C)CC3)CC2)ncn1 [Example 33, 1-Methylcyclopropyl 4-({6-[5-(dimethylcarbamoyl)-2,3-dihydro-1H-pyrrolo[3,2-b]pyridin-1-yl]pyrimidin-4-yl}oxy)piperidine-1-carboxylate] | 
